{
  "source": "patent EP4420661B1",
  "about": "“SMALL MOLECULES TARGETING GLYCOPROTEIN VI AS ANTIPLATELET AGENTS FOR USE IN THE PREVENTION AND/OR TREATMENT OF THROMBOSIS AND ASSOCIATED PATHOLOGIES” (Universidade de Santiago de Compostela, priority 2023, dated 2024)",
  "type_in_all_cases": "in vitro ADME",
  "key": {"[1]": {"assay": "plasma protein binding, Rapid Equilibrium Dialysis (RED), rat", "conditions": "4h at 37°C", "procedure": "(§1) Plasma from Seralab was employed in the assay and was carried out by employing Rapid Equilibrium Dialysis (RED) from Thermo Scientific.\n(§2) The compounds were dissolved at 5 µM in plasma and added to the corresponding insert of the RED device. Dialysis buffer was added to the corresponding insert of the RED device. Plate was incubated for 4h at 37°C.\n(§3) After the incubation period 50 µL aliquots of each chamber were transferred to empty vials. 50 µL of dialysis buffer were added to the plasma samples and 50 µL of plasma were added to the buffer samples. 300 µL of acetonitrile were added to all the samples and centrifuged at 4000 rpm 100 µL aliquots of the supernatants were transferred to a LC analysis plate. Samples were analyzed in a UPLC/MS/MS. Stationary phase: Acquity UPLC® BEHC18 1,7 µm (2.1 mm x 50 mm) (Waters). Gradient: A (H2O + 0.1% Formic acid); B (ACN + 0.1% Formic acid); Flow: 0.6mL/min Table 8: UPLC gradient / Protein binding assay\n(§4) The chromatographic equipment employed was an ACQUITY UPLC / Xevo TQD System. Compound concentrations were calculated from the MS peak areas. Table 9: Plasma protein binding of the compounds of formula (I) in rat, mice, dogs and humans / (*) low recovery"}, "Plasma protein [2]": {"system": "Plasma protein", "assay": "plasma protein binding, Rapid Equilibrium Dialysis (RED), rat", "conditions": "5 µM, 4h at 37°C", "procedure": "as §1, §2, §3, §4"}, "[3]": {"assay": "plasma protein binding, Rapid Equilibrium Dialysis (RED), human", "conditions": "4h at 37°C", "procedure": "as §1, §2, §3, §4"}, "Plasma protein [4]": {"system": "Plasma protein", "assay": "plasma protein binding, Rapid Equilibrium Dialysis (RED), human", "conditions": "5 µM, 4h at 37°C", "procedure": "as §1, §2, §3, §4"}, "[5]": {"assay": "plasma protein binding, Rapid Equilibrium Dialysis (RED), mouse", "conditions": "4h at 37°C, (*) low recovery for (If)", "procedure": "as §1, §2, §3, §4"}, "Plasma protein [6]": {"system": "Plasma protein", "assay": "plasma protein binding, Rapid Equilibrium Dialysis (RED), mouse", "conditions": "5 µM, 4h at 37°C, (*) low recovery for (If)", "procedure": "as §1, §2, §3, §4"}, "[7]": {"assay": "plasma protein binding, Rapid Equilibrium Dialysis (RED), dog", "conditions": "4h at 37°C", "procedure": "as §1, §2, §3, §4"}, "Plasma protein [8]": {"system": "Plasma protein", "assay": "plasma protein binding, Rapid Equilibrium Dialysis (RED), dog", "conditions": "5 µM, 4h at 37°C", "procedure": "as §1, §2, §3, §4"}},
  "data": [
    {"smiles": "O=C1NC(=O)C(c2ccccc2)(c2ccccc2)N1", "note": "[Phenytoin, reference compound]", "values": [
      {"measurement": "fraction unbound at 4 h, 5 µM", "setting": "[1]", "result": 0.138},
      {"measurement": "Unbound fraction", "setting": "Plasma protein [2]", "result": 13.76, "unit": "%"},
      {"measurement": "fraction unbound at 4 h, 5 µM", "setting": "[3]", "result": 0.178},
      {"measurement": "Unbound fraction", "setting": "Plasma protein [4]", "result": 17.77, "unit": "%"},
      {"measurement": "fraction unbound at 4 h, 5 µM", "setting": "[5]", "result": 0.179},
      {"measurement": "Unbound fraction", "setting": "Plasma protein [6]", "result": 17.94, "unit": "%"},
      {"measurement": "fraction unbound at 4 h, 5 µM", "setting": "[7]", "result": 0.189},
      {"measurement": "Unbound fraction", "setting": "Plasma protein [8]", "result": 18.94, "unit": "%"}
    ]}
  ]
}
